Reference: patent US10227315B2, “Mitochondrial uncouplers for treatment of metabolic diseases and cancer” (RUTGERS, THE STATE UNIVERSITY OF NEW JERSEY, priority 2016, dated 2019)

Legend:
[1] = tested on: mouse myoblast C2C12 cells; assay: Oxygen consumption rate (OCR) assay with Seahorse XF96 or XF24, mitochondrial uncoupling; format: cell-based; conditions: 10% fetal bovine serum, in the presence of oligomycin 2.5 μM, read-out: Cmin (minimal concentration to induce ATP synthase-independent OCR increase)
Source text: By definition, mitochondrial uncoupling is the decoupling of mitochondrial electron transport chain activity (mitochondrial oxidation) from ATP synthesis by mitochondrial ATP synthase. Technically, mitochondrial uncoupling activity is defined by the ability of a chemical compound to induce oxygen consumption of cells or isolated mitochondria in the presence of a mitochondrial ATP synthase inhibitor such as oligomycin. Accordingly, we determined mitochondrial uncoupling activity by oxygen consumption rate (OCR) assay with a Seahorse XF96 or a Seahorse XF24 instrument following the vendor's instruction, using mouse myoblast C2C12 cells growing in medium containing 10% fetal bovine serum. […] The minimal concentration (Cmin) of each compound under which OCR is induced in the presence of oligomycin, was determined.

[2] = tested on: NIH-3T3 cells, or HepG2 cells; assay: Mitochondrial membrane potential assay, TMRE staining; format: cell-based; conditions: 2 h; two hours treatment, TMRE 100 nM; read-out: EC50, mitochondrial membrane potential reduction (TMRE staining reduced to about 50%)
Protocol: Mitochondrial uncoupling may also lead to a reduction of mitochondrial membrane potential. We performed mitochondrial membrane potential assay using TMRE (tetramethylrhodamine ethyl ester) staining method with cultured mammalian cells, the NIH-3T3 cells, or HepG2 cells. Cells were seeded onto 6-well plates and cultured in DMEM medium supplemented with 10% fetal bovine serum and 2 mM glutamine. Cells were allowed to grow to logarithmic growth phase prior to experiments. The cells were treated with each individual compound at various concentrations for two hours, followed by staining with TMRE at final concentration of 100 nM for 15 minutes. The cells were then washed once with PBS, and examined under fluorescence microscopy. Cells treated with various concentrations of niclosamide ethanolamine were used as positive control. Reduction of mitochondrial TMRE staining was estimated as a quantification of mitochondrial uncoupling activity. […] The following table (Table II) summarizes the activity of individual compounds in reducing mitochondrial membrane potential in cultured mammalian cells.

| SMILES | minimal effective concentration [1] [µM] | EC50 [2] [µM] |
| --- | --- | --- |
| O=C(Nc1nc2cccc(C(F)(F)F)c2s1)c1cc(Cl)ccc1O [Compound 26, 5-Chloro-2-hydroxy-N-(7-(trifluoromethyl)benzo[d]thiazol-2-yl)benzamide] | > 25 | > 25 |
| Cc1nc2cc(Cl)cc(C(=O)Nc3nc4ccc(C(F)(F)F)cc4s3)c2[nH]1 [Compound 56, 5-Chloro-2-methyl-N-(6-(trifluoromethyl)benzo[d]thiazol-2-yl)-1H-benzo[d]imidazole-7-carboxamide] | < 10 |  |
| O=C(Nc1nc2ccc(C(F)(F)F)cc2s1)c1cc(Cl)cc(C2CC2)c1O [Compound 36, 5-Chloro-3-cyclopropyl-2-hydroxy-N-(6-(trifluoromethyl)benzo[d]thiazol-2-yl)benzamide] | < 10 | < 10 |
| CCc1nc2cc(Cl)cc(C(=O)Nc3nc4ccc(C(F)(F)F)cc4s3)c2[nH]1 [Compound 57, 5-Chloro-2-ethyl-N-(6-(trifluoromethyl)benzo[d]thiazol-2-yl)-1H-benzo[d]imidazole-7-carboxamide] | > 25 |  |
| Cc1cc(Cl)cc(C(=O)Nc2nc3c(C(F)(F)F)cc(C(F)(F)F)cc3s2)c1O [Compound 50, N-(4,6-Bis(trifluoromethyl)benzo[d]thiazol-2-yl)-5-chloro-2-hydroxy-3-methylbenzamide] | < 10 | < 10 |
| Oc1cc(Nc2nc3ccc(C(F)(F)F)cc3s2)c(C(F)(F)F)cc1C(F)(F)F [Compound 9, 2,4-Bis(trifluoromethyl)-5-((6-(trifluoromethyl)benzo[d]thiazol-2-yl)amino)phenol] | > 25 | > 25 |
| O=C(Nc1nc2cc(C(F)(F)F)ccc2s1)c1cc(Cl)ccc1O [Compound 25, 5-Chloro-2-hydroxy-N-(5-(trifluoromethyl)benzo[d]thiazol-2-yl)benzamide] | > 25 | > 25 |
| Cc1cc(Cl)cc(C(=O)Nc2nc3ccc(C(F)(F)F)cc3s2)c1O [Compound 37, 5-Chloro-2-hydroxy-3-methyl-N-(6-(trifluoromethyl)benzo[d]thiazol-2-yl)benzamide compound with (2R,3R,4R,5S)-6-(methylamino)hexane-1,2,3,4,5-pentaol (1:1)] |  | < 10 |
| Cc1cc(Cl)cc(C(=O)Nc2nc3cccc(C(F)(F)F)c3s2)c1O [Compound 42, 5-Chloro-2-hydroxy-3-methyl-N-(7-(trifluoromethyl)benzo[d]thiazol-2-yl)benzamide] | > 25 | > 25 |
| O=C(Nc1nc2c(F)cc(F)cc2s1)c1cc(Cl)cc2nn[nH]c12 [Compound 59, 5-Chloro-N-(4,6-difluorobenzo[d]thiazol-2-yl)-1H-benzo[d][1,2,3]triazole-7-carboxamide] | > 25 |  |
| N#Cc1ccc(NC(=O)c2cc(Cl)ccc2O)c(Cl)c1 [Compound 16, 5-Chloro-N-(2-chloro-4-cyanophenyl)-2-hydroxybenzamide] | < 10 | < 10 |
| O=C(Nc1nc2ccc(C(F)(F)F)cc2s1)c1cc(Cl)cc2nc(C(F)(F)F)[nH]c12 [Compound 8, 5-Chloro-2-(trifluoromethyl)-N-(6-(trifluoromethyl)benzo[d]thiazol-2-yl)-1H-benzo[d]imidazole-7-carboxamide] | 10 to 25 | 10 to 25 |
| CN(C)CCCc1cc(Cl)cc(C(=O)Nc2nc3ccc(C(F)(F)F)cc3s2)c1O [Compound 52, 5-Chloro-3-(3-(dimethylamino)propyl)-2-hydroxy-N-(6-(trifluoromethyl)benzo[d]thiazol-2-yl)benzamide] | < 10 |  |
| O=C(Nc1nc2ccc(C(F)(F)F)cc2s1)c1cc(Cl)cc(CO)c1O [Compound 49, 5-Chloro-2-hydroxy-3-(hydroxymethyl)-N-(6-(trifluoromethyl)benzo[d]thiazol-2-yl)benzamide] | > 25 | > 25 |
| O=C(Nc1nc2ccc(C(F)(F)F)cc2s1)c1cc(Cl)cc2nn[nH]c12 [Compound 58, 5-Chloro-N-(6-(trifluoromethyl)benzo[d]thiazol-2-yl)-1H-benzo[d][1,2,3]triazole-7-carboxamide] | > 25 | > 25 |
| CN(C)Cc1cc(Cl)cc(C(=O)Nc2nc3ccc(C(F)(F)F)cc3s2)c1O [Compound 53, 5-Chloro-3-((dimethylamino)methyl)-2-hydroxy-N-(6-(trifluoromethyl)benzo[d]thiazol-2-yl)benzamide] | < 10 |  |
| O=C(Nc1nc2ccc(C(F)(F)F)cc2s1)c1cc(Cl)ccc1O [Compound 33, 5-Chloro-2-hydroxy-N-(6-(trifluoromethyl)benzo[d]thiazol-2-yl)benzamide ethanolamine] | < 10 | < 10 |
| Cc1cc(Cl)cc(C(=O)Nc2nc3cc(C(F)(F)F)ccc3s2)c1O [Compound 41, 5-Chloro-2-hydroxy-3-methyl-N-(5-(trifluoromethyl)benzo[d]thiazol-2-yl)benzamide] | < 10 | < 10 |
| O=C(Nc1nc2c(F)cc(F)cc2s1)c1cc(Cl)ccc1O [Compound 35, 5-Chloro-N-(4,6-difluorobenzo[d]thiazol-2-yl)-2-hydroxybenzamide ethanolamine] |  | < 10 |
| O=C(Nc1nc2c(F)cc(C(F)(F)F)cc2s1)c1cc(Cl)ccc1O [Compound 21, 5-Chloro-N-(4-fluoro-6-(trifluoromethyl)benzo[d]thiazol-2-yl)-2-hydroxybenzamide] | < 10 | < 10 |
| Cc1cc(Cl)cc(C(=O)Nc2nc3ccc(OC(F)(F)F)cc3s2)c1O [Compound 51, 5-Chloro-2-hydroxy-3-methyl-N-(6-(trifluoromethoxy)benzo[d]thiazol-2-yl)benzamide] | < 10 | < 10 |
| O=C(Nc1ccc(F)cc1Cl)c1cc(Cl)ccc1O [Compound 15, 5-Chloro-N-(2-chloro-4-fluorophenyl)-2-hydroxybenzamide] | < 10 | < 10 |
| CS(=O)(=O)NCCc1cc(Cl)cc(C(=O)Nc2nc3ccc(C(F)(F)F)cc3s2)c1O [Compound 3, 5-Chloro-2-hydroxy-3-(2-(methylsulfonamido)ethyl)-N-(6-(trifluoromethyl)benzo[d]thiazol-2-yl)benzamide] | < 10 |  |
| CN(C)Cc1cc(Cl)cc(C(=O)Nc2nc3ccc(OC(F)(F)F)cc3s2)c1O [Compound 54, 5-Chloro-3-((dimethylamino)methyl)-2-hydroxy-N-(6-(trifluoromethoxy)benzo[d]thiazol-2-yl)benzamide] | < 10 |  |
| O=C(Nc1nc2c(C(F)(F)F)cccc2s1)c1cc(Cl)ccc1O [Compound 32, 5-Chloro-2-hydroxy-N-(4-(trifluoromethyl)benzo[d]thiazol-2-yl)benzamide ethanolamine] | < 10 | < 10 |
| Cc1cc(Cl)cc(C(=O)Nc2nc3c(C(F)(F)F)cccc3s2)c1O [Compound 34, 5-Chloro-2-hydroxy-3-methyl-N-(4-(trifluoromethyl)benzo[d]thiazol-2-yl)benzamide ethanolamine] |  | < 10 |
| CN(C)CCc1cc(Cl)cc(C(=O)Nc2nc3ccc(C(F)(F)F)cc3s2)c1O [Compound 2, 5-Chloro-3-(2-(dimethylamino)ethyl)-2-hydroxy-N-(6-(trifluoromethyl)benzo[d]thiazol-2-yl)benzamide] | < 10 |  |
| O=C(Nc1nc2c(C(F)(F)F)cc(C(F)(F)F)cc2s1)c1cc(Cl)ccc1O [Compound 22, N-(4,6-Bis(trifluoromethyl)benzo[d]thiazol-2-yl)-5-chloro-2-hydroxybenzamide] | < 10 | < 10 |
| O=C(Nc1ccc(C(F)(F)F)cc1Cl)c1cc(Cl)ccc1O [Compound 14, 5-Chloro-N-(2-chloro-4-(trifluoromethyl)phenyl)-2-hydroxybenzamide] | < 10 | < 10 |
| O=C(Nc1ccc([N+](=O)[O-])cc1Cl)c1cc(Cl)ccc1OC(=O)N1CCOCC1 [Compound 13, 4-Chloro-2-((2-chloro-4-nitrophenyl)carbamoyl)phenyl morpholine-4-carboxylate] | < 10 | < 10 |
